In US8003570B2, “Composition and method for killing nematodes and weeds in soils” (priority 2006, dated 2011):

Assays:
Format in all cases: in vivo
nematodes [1] = test: Example II field trial: soil nematode population and root infection
Method: (§1) Field trials were conducted in Florida where tomatoes are grown under a plastic mulch and an irrigation system, called “T” tapes, which is used to irrigate the crop under the plastic mulch. Design of the experiment were three rows of a standard methyl bromide applications as the smallest replication. Four such sets of three rows were used as replicated applications. There was a zero treatment. Methyl bromide gas used at a 400 pounds per acre basis as the control and the compositions A, B, C. and D were used at a 5 liters per acre basis. Composition A was injected through the “T” tape one day after methyl bromide was injected.
(§2) The plants growing in the middle rows only of these three rows, were used to collect data. In the middle rows, 14 plants were randomly selected for measuring. The height of the plants were collected at 30 days. Starting at fruit harvest, fruits collected from these 14 plants were cumulatively added to give the total production data. At the end of harvest these plants were carefully dug up and roots carefully washed to weigh the total roots and also measure the degree of infection in the roots. Soil samples were also collected from the holes where the plants were dug up and analyzed for soil nematode population. Finally, all nut sedge plants that came through the plastic mulch in the entire 150-yard middle rows were counted as a “strike”, a degree of insufficient kill of the rhizomes.
(§3) In this experiment, methyl bromide was applied at full dose of 400 pounds per acre of the gas and the treatments used 200 pounds of methyl bromide per acre alone and with 5 liters of composition A per acre, 100 pounds of methyl bromide alone and with composition A at 5 liters per acre, 50 pounds of methyl bromide with 5 liters of composition A and the last treatment of 5 liters of composition A per acre by itself. Tomatoes were planted 20 days after methyl bromide was injected under the plastic mulch. Composition A was injected through the “T” tape one day after methyl bromide was injected. The design of Experiment II was the same as in Experiment I, and the data collected were as in the Experiment I. The results of this experiment are shown in Table II.

nut sedge rhizomes [2] = test: Example II field trial: nut sedge strikes
Method: as §1, §2, §3

tomatoes [3] = test: Example II field trial, methyl bromide dose reduction with or without composition A: tomato growth and production
Method: as §1, §2, §3

tomatoes [4] = test: as above; settings: M.B. 50 lbs. alone
nut sedge rhizomes [5] = test: Example 1 field trial in Florida: nut sedge strikes through plastic mulch; settings: methyl bromide 400 pounds per acre
Method: as §1
The plants growing in the middle rows only of these three rows, were used to collect data. In the middle rows, 14 plants were randomly selected for measuring. The height of the plants were collected at 30 days. Starting at fruit harvest, fruits collected from these 14 plants were cumulatively added to give the total production data. […] Soil samples were also collected from the holes where the plants were dug up and analyzed for soil nematode population. Finally, all nut sedge plants that came through the plastic mulch in the entire 150-yard middle rows were counted as a “strike”, a degree of insufficient kill of the rhizomes.

tomatoes [6] = test: Example 1 field trial in Florida, tomatoes under plastic mulch: plant height, production, root weight; settings: methyl bromide 400 pounds per acre, compositions 5 liters per acre
Method: as §1, §2

nematodes [7] = test: Example 1 field trial in Florida: soil nematode population and root infection; settings: methyl bromide 400 pounds per acre
Method: as §1, §2

Q: How did the “Infection in Roots” value (nematodes [1]; M.B. 50 lbs. alone) turn out when CBr [Methyl Bromide, Methyl bromide] was run?
A: The value was “high”.

Q: And the “Soil Nematode” value (nematodes [1]; M.B. 50 lbs. alone)?
A: Its value is 16,000.

Q: And the “Infection in Roots” value (nematodes [1]; M.B. 100 lbs. per acre alone)?
A: Its value is “high”.

Q: And the “Soil Nematode” value (nematodes [1]; M.B. 100 lbs. per acre alone)?
A: The value was 2200/10 gr.

Q: What about the “Infection in Roots” value (nematodes [1]; M.B. 200 lbs. per acre alone) of the same compound?
A: The value was “slight”.

Q: And the “Soil Nematode” value (nematodes [1]; M.B. 200 lbs. per acre alone)?
A: The value was 1056/10 gr.

Q: And the “Infection in Roots” value (nematodes [1]; M.B. 400 lbs per acre)?
A: Its value is “zero”.

Q: What about the “Soil Nematode” value (nematodes [1]; M.B. 400 lbs per acre) of the same compound?
A: The value was “zero”.

Q: And the “Live nut sedge in 150 yards” value (nut sedge rhizomes [2]; M.B. 50 lbs. alone)?
A: Its value is 38 strikes.

Q: And the “Live nut sedge in 150 yards” value (nut sedge rhizomes [2]; M.B. 100 lbs. per acre alone)?
A: The value was 28 strikes.

Q: What about the “Live nut sedge in 150 yards” value (nut sedge rhizomes [2]; M.B. 200 lbs. per acre alone) of the same compound?
A: The value was 18 strikes.

Q: And the “Live nut sedge in 150 yards” value (nut sedge rhizomes [2]; M.B. 400 lbs per acre)?
A: The value was 7 strikes.

Q: And the “Height at 30 Days” value (tomatoes [3]; M.B. 100 lbs. per acre alone)?
A: Its value is 2.2 ft.

Q: What about the “Production Per Plant” value (tomatoes [3]; M.B. 100 lbs. per acre alone) of the same compound?
A: Its value is 5.1 lbs.

Q: And the “Weight of Roots” value (tomatoes [3]; M.B. 100 lbs. per acre alone)?
A: Its value is 90 gr.

Q: And the “Height at 30 Days” value (tomatoes [3]; M.B. 200 lbs. per acre alone)?
A: The value was 2.7 ft.

Q: And the “Production Per Plant” value (tomatoes [3]; M.B. 200 lbs. per acre alone)?
A: The value was 6.1 lbs.

Q: What about the “Weight of Roots” value (tomatoes [3]; M.B. 200 lbs. per acre alone) of the same compound?
A: Its value is 120 gr.

Q: And the “Height at 30 Days” value (tomatoes [3]; M.B. 400 lbs per acre)?
A: The value was 3 ft.

Q: And the “Production Per Plant” value (tomatoes [3]; M.B. 400 lbs per acre)?
A: Its value is 8.6 lbs.

Q: What about the “Weight of Roots” value (tomatoes [3]; M.B. 400 lbs per acre) of the same compound?
A: The value was 170 gr.

Q: And the “Height at 30 Days” value (tomatoes [4])?
A: The value was 2 ft.

Q: And the “Production Per Plant” value (tomatoes [4])?
A: The value was 4 lbs.

Q: What about the “Weight of Roots” value (tomatoes [4]) of the same compound?
A: The value was 60.

Q: What about the “efficacy in controlling the weeds” value (nut sedge rhizomes [5]; Example 1 discussion) of the same compound?
A: Its value is “same efficacy in controlling the weeds as composition A”.

Q: And the “Live nut sedge in 150 yards” value (nut sedge rhizomes [5]; shoots piercing plastic mulch in 150-yard middle rows, compositions 5 liters per acre)?
A: Its value is 12/150 strikes″.

Q: What about the “Weight of Roots” value (tomatoes [6]; end of harvest) of the same compound?
A: The value was 165 gr.

Q: What about the “Height at 30 Days” value (tomatoes [6]) of the same compound?
A: Its value is 2.6 feet.

Q: What about the “Production Per Plant” value (tomatoes [6]) of the same compound?
A: Its value is 16 lbs.

Q: What about the “nematode control in the soil” value (nematodes [7]; Example 1 discussion) of the same compound?
A: The value was “superior to compositions A, B, C and D”.

Q: What about the “Soil Nematode” value (nematodes [7]; soil at end of harvest, compositions 5 liters per acre) of the same compound?
A: Its value is 700/10 gr.

Q: What about the “Infection in Roots” value (nematodes [7]; tomato roots, end of harvest, compositions 5 liters per acre) of the same compound?
A: Its value is “zero”.
